23 compounds from patent US11767296B2, “Heteroaryl compounds as kinase inhibitor” (FUJIAN HAIXI PHARMACEUTICALS CO., LTD, priority 2018, dated 2023) can be followed below.

Assay [1] concerns the target T1, CSF-1R (Homo sapiens, UniProt P07333).
T1 construct: purchased Invitrogen PV3249
Put plainly: CSF-1R kinase assay (HTRF kinEASE TK). The class given is biochemical. To be noted: ATP 2.5 uM, enzyme 0.012 ng/ul, read-out: In vitro inhibitory activity of CSF-1R IC50. As to the method:
Example 53: CSF-1R Kinase Assay
I. Materials and Instruments
• 2104 EnVision® Multilabel Reader (PerkinElmer) • OptiPlate-384, White Opaque 384-well MicroPlate (Cat.6007290, PerkinElmer) • HTRF kinEASE TK (Cat.62TKOPEC, Cisbio) • CSF-1R(Cat. PV3249, Invitrogen) • ATP 10 mM (Cat. PV3227, Invitrogen) • DTT 1 M (Cat. D5545, Sigma) • MgCl2 1 M (Cat. M8266, Sigma) • MnCl2 1 M (Cat.244589. Sigma)
II. Experimental Procedure
Substrate-TK and ATP were diluted to 5 times of the reaction concentration by 1×Kinase Buffer. CSF1R enzyme was diluted to 5×enzyme solution by 1×kinase buffer. Sa-XL665 was diluted to 4×Sa-XL665 solution by Detection Buffer. 100×TK-Ab-Cryptate Solution TK-Ab-Cryptate was diluted to 100×TK-Ab-Cryptate solution by Detection Buffer. 2. Experimental Procedure After all reagents had been prepared according to the above method, except enzymes, the sample was added after equilibrium to room temperature. • a. Firstly, 2.5% DMSO solution was prepared by using 1×kinase buffer (the high concentration of DMSO will affect the reaction and control the final concentration of DMSO to 1%). Then the compounds were diluted by 2.5% DMSO solution corresponding to the enzyme. The screening concentration of the compounds was 4 times gradient dilution from 1000 nM, and 8 concentrations. In addition to the control pore, 4 microlitres of diluted solution containing 2.5% DMSO were added to the reaction pore and 4 microlitres of previously prepared solution containing 2.5% DMSO were added to the control pore. • b. 2 microlitres of previously prepared TK-biotin substrate solution was added to all reaction pore (the amount of substrate used for enzyme screening is shown in Table 15). • c. Adding 2 microlitres of CSF1R enzyme solution of corresponding concentration (the amount of enzyme is shown in Table 15) to all reaction pore except negative pore. The negative pore is supplemented with 2 microlitres of enzyme corresponding to 1 xkinase buffer. After mixing, the compound and enzyme can be fully combined by incubating at room temperature for 10 minutes. • d. Enzyme reaction was initiated by adding 2 microlitres ATP solution of corresponding concentration to all reaction pore. The reaction time was 30 minutes (the corresponding ATP concentration and reaction time at enzyme screening were shown in Table 15). • e. Preparing the test solution 5 minutes before the end of kinase reaction. Streptavidin-XL665 and TK antibody europium cryptate (1:100) were prepared with detection buffer in the kit (the corresponding concentration of detection reagent for enzyme screening is shown in Table 15). • f. After the kinase reaction, 5 microlitres of diluted Streptavidin-XL665 were added to all reaction pore, mixing, and then the diluted TK antibody europium cryptate solution was added immediately. • g. After 1 hour reaction at room temperature, the fluorescence signals (320 nm stimulation, 665 nm, 615 nm emission) were detected by ENVISION (Perkinelmer) instrument. The inhibition rate of each pore was calculated by full active pore and background signal pore, and the average value of complex pore was obtained. Meanwhile, the half inhibitory activity (IC50) of each compound was fitted by professional drawing analysis software PRISM 5.0. The Flow Chart of the Experiment is as Follows:
3. Data Analysis Emission Ratio (ER)=665 nm Emission signal/615 nm Emission signal Inhibitory rate=(ERpositive−ERsample)/(ERpositive−ERnegative)*100% Using Graphpad Prism 5 and log (inhibitor) vs. normalized response to fit IC50 curve and calculate IC50 value. The IC50 data of the compounds prepared in Representative Examples 3-52 are as follows (Table 18): […]
Background: TR-FRET usually uses a lanthanide donor and a delayed reading to cut background.

For assay [2], the system named is NFS-60 cells. Put plainly: NFS-60 cell assay (CCK proliferation, M-CSF stimulated). The assay is classed as cell-based. To be noted: Mus musculus, compound 0.5 uM, 72 h, 40 ng/mL M-CSF, read-out: inhibition ratio % (NFS-60 cell proliferation). As to the method: Example 54: NFS-60 Cell Assay
1. Experimental Materials
Mouse Myelogenous Leukemia Cells (NFS-60)
Using DMSO to dissolve, and the required concentration was prepared with full culture medium without factors.
Penicillin-streptomycin: TRANS
Mouse M-CSF/CSF-1 Protein: Sino Biological Inc, No. 51112-MNAH
M-CSF: Qilu Pharmaceutical co., Ltd.
The logarithmic growth phase of NFS-60 cells (1640+10% FBS+40 ng/ml M-CSF+1% Penicillin-streptomycin) were centrifuged (1000 r/min) and cultured in a factor-free medium at 37° C., 5% CO2 for 24 hours. Centrifugating (1000 r/min), the culture medium was replaced by new culture medium including 40 ng/mL factors, and inoculated on 96-well plate by 2*10^4 cells/mL, 100 μL/hole. After 16 hours, the tested compounds were added 10 μL/hole, 3 duplicate holes per compound, 37° C., 5% CO2, continue to cultured for 72 h. Then 10 μL CCK reagent was added to each hole. After incubation for 4 hours, the absorbance of each hole was measured at 450 nm wavelength. According to Formula: Inhibitory rate (%)=(1-OD value of test pore/OD value of solvent control pore)×100% 3. Experimental Results The experimental results of the inhibition of NFS-60 cell proliferation by the compounds prepared in Example 3-52, 0.5 uM, are shown in the following table: […]

Structures are written as SMILES.

For orientation: IC50 means the concentration needed to halve the response being measured.

T1 sequence (P07333 20-972): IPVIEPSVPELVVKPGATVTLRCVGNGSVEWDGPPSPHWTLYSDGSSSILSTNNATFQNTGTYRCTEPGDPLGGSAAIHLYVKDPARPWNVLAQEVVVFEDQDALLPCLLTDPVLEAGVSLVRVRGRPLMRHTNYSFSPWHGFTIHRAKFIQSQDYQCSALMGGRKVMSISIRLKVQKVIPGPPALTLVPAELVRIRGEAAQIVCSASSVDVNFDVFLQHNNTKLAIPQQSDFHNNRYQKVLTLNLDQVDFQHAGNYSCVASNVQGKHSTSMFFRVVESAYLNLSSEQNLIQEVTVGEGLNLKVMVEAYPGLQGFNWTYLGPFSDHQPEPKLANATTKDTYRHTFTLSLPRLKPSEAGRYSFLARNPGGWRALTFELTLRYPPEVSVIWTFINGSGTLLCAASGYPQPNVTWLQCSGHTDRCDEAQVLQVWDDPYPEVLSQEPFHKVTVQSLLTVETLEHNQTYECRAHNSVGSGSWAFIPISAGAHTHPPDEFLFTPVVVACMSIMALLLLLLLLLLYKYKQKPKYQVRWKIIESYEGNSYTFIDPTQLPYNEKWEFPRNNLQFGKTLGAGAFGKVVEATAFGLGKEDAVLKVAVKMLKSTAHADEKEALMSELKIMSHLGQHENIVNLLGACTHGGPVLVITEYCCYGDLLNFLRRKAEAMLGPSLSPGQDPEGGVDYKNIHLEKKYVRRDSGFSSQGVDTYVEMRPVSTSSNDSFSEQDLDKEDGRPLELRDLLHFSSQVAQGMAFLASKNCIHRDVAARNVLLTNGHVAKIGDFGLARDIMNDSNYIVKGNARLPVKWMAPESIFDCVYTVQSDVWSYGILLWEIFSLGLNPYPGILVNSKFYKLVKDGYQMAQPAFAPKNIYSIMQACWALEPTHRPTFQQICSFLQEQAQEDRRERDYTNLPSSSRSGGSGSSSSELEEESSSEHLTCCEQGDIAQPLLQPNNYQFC

Consider `Nc1ncc(Cl)cc1OCc1cccc(NC(=O)c2cccc(Cl)c2)c1` [Compound 22, N-(3-(((2-amino-5-chloropyridin-3-yl)oxy)methyl)phenyl)-3-chloro-benzamide], for which the IC50 in assay [1] is at most 50 nM.

On to `C[C@H](Oc1cc(Cl)cnc1N)c1cccc(NC(=O)c2cccc(Cl)c2)c1` [Compound 55, (S)-N-(3-(1-((2-amino-5-chloropyridin-3-yl)oxy)ethyl)-phenyl)-3-chlorobenzamide], for which the IC50 in assay [1] is at most 50 nM.

`Cc1cccc(C(=O)Nc2cccc([C@H](C)Oc3cc(Cl)cnc3N)c2)c1Cl` [Compound 64, (S)-N-(3-(1-((2-amino-5-chloropyridin-3-yl)oxy)ethyl)-phenyl)-2-chloro-3-methylbenzamide]: the IC50 in assay [1] was at most 50 nM.

Regarding `C[C@H](Oc1cc(Cl)cnc1N)c1cccc(NC(=O)c2cccc(C3CC3)c2)c1` [Compound 70, (S)-N-(3-(1-((2-amino-5-chloropyridin-3-yl)oxy)ethyl)-phenyl)-3-cyclopropylbenzamide], the inhibition at 0.5 µM in assay [2] was at least 50%.

As for `Cc1ccc(Cl)c(C(=O)Nc2cccc([C@@H](C)Oc3cc(Cl)cnc3N)c2)c1` [Compound 73, (R)-N-(3-(1-((2-amino-5-chloropyridin-3-yl)oxy)ethyl)-phenyl)-2-chloro-5-methylbenzamide], the IC50 in assay [1] was at most 50 nM.

Take `Cc1cccc(C(=O)Nc2ccc(Cl)c([C@@H](C)Oc3cc(Cl)cnc3N)c2)c1Cl` [Compound 95, (R)-N-(3-(1-((2-amino-5-chloropyridin-3-yl)oxy)ethyl)-4-chlorophenyl)-2-chloro-3-methylbenzamide]: the IC50 in assay [1] is 51 to 500 nM.

Regarding `C[C@@H](Oc1cc(Cl)cnc1N)c1cccc(NC(=O)c2cccc(CN3CCN(C)CC3)c2)c1` [Compound 103, (R)-N-(3-(1-((2-amino-5-chloropyridin-3-yl)oxy)ethyl)-phenyl)-3-((4-methylpiperazin-1-yl)methyl)benzamide], the half-maximal inhibitory concentration (IC50) in assay [1] was in the range of 500 to 10000 nM.

For the compound `Cc1cccc(C(=O)Nc2cccc([C@@H](C)Oc3cc(Cl)cnc3N)n2)c1` [Compound 141, (R)-N-(6-(1-((2-amino-5-chloropyridin-3-yl)oxy)ethyl)-pyridin-2-yl)-3-methylbenzamide], in assay [1], the IC50 was in the range of 51 to 500 nM.

For `Cc1ccc(C(=O)Nc2cccc([C@@H](C)Oc3cc(-c4cnn(C)c4)cnc3N)c2)cc1C` [Compound 170, (R)-N-(3-(1-((2-amino-5-(1-methyl-1H-pyrazol-4-yl)pyridin-3-yl)oxy)ethyl)phenyl)-3,4-dimethyl benzamide], the IC50 in assay [1] is at most 50 nM.

On to `Cc1cc(C)cc(C(=O)Nc2cccc([C@@H](C)Oc3cc(-c4cnn(C)c4)cnc3N)c2)c1` [Compound 171, (R)-N-(3-(1-((2-amino-5-(1-methyl-1H-pyrazol-4-yl)pyridin-3-yl)oxy)ethyl)phenyl)-3,5-dimethyl benzamide], for which the IC50 in assay [1] was at most 50 nM.

As for `C[C@@H](Oc1cc(-c2cnn(C)c2)cnc1N)c1cccc(NC(=O)c2cccc(C3CC3)c2)c1` [Compound 174, (R)-N-(3-(1-((2-amino-5-(1-methyl-1H-pyrazol-4-yl)pyridin-3-yl)oxy)ethyl)phenyl)-cyclopropylbenzamide], in assay [1], the IC50 was at most 50 nM.

For the compound `C[C@@H](Oc1cc(-c2cnn(C)c2)cnc1N)c1cccc(NC(=O)c2ccc(C(F)(F)F)c(S(C)(=O)=O)c2)c1` [Compound 175, (R)-N-(3-(1-((2-amino-5-(1-methyl-1H-pyrazol-4-yl)pyridin-3-yl)oxy)ethyl)phenyl)-3-(methylsulfonyl)-4-(trifluoromethyl)benzamide], the IC50 in assay [1] is at most 50 nM.

For `CC(C)c1cccc(C(=O)Nc2cccc([C@@H](C)Oc3cc(-c4cnn(C)c4)cnc3N)c2)c1` [Compound 187, (R)-N-(3-(1-((2-amino-5-(1-methyl-1H-pyrazol-4-yl)pyridin-3-yl)oxy)ethyl)phenyl)-3-isopropylbenzamide], the IC50 in assay [1] is at most 50 nM.

As for `C[C@@H](Oc1cc(-c2cnn(C)c2)cnc1N)c1cccc(NC(=O)c2ccc3c(c2)CCC3)c1` [Compound 188, (R)-N-(3-(1-((2-amino-5-(1-methyl-1H-pyrazol-4-yl)pyridin-3-yl)oxy)ethyl)phenyl)-2,3-dihydro-1H-indene-5-carboxamide], in assay [1], the IC50 was at most 50 nM.

Take `Cc1cccc(C(=O)Nc2cccc([C@@H](C)Oc3cc(-c4cccnc4)cnc3N)c2)c1` [Compound 202, (R)-N-(3-(1-((6-amino-[3,3′-bipyridin]-5-yl)oxy)ethyl)phenyl)-3-methylbenzamide]: the IC50 in assay [1] is at most 50 nM.

In the case of `Cc1cccc(NC(=O)c2cccc([C@H](C)Oc3cc(Cl)cnc3N)c2)c1` [Compound 222, (S)-3-(1-((2-amino-5-chloropyridin-3-yl)oxy)ethyl)-N-(m-tolyl)benzamide], the IC50 in assay [1] lay within 51 to 500 nM.

For the compound `CNc1ncc(Cl)cc1OCc1cccc(NC(=O)c2cccc(C)c2)c1` [Compound 236, N-(3-(((5-chloro-2-(methylamino)pyridin-3-yl)oxy)methyl)phenyl)-3-methylbenzamide], in assay [1], the IC50 lay in the range of 51 to 500 nM.

`Cc1cccc(C(=O)Nc2cccc(Oc3cc(Cl)cnc3N)c2)c1` [Compound 305, N-(3-((2-amino-5-chloropyridin-3-yl)oxy)phenyl)-3-methyl-benzamide]: in assay [1], the IC50 was 51 to 500 nM.

For `COc1cccc(C(=O)Nc2cc(C(C)Oc3cc(Cl)cnc3N)ccc2F)c1` (centres unmarked) [Compound 318, N-(5-(1-((2-amino-5-chloropyridin-3-yl)oxy)ethyl)-2-fluorophenyl)-3-methoxybenzamide], in assay [1], the IC50 was 51 to 500 nM.

With `Cc1cccc(C(=O)Nc2cccc([C@@H](C)Oc3cncc(Cl)c3)c2)c1` [Compound 323, (R)—N-(3-(1-((5-chloropyridin-3-yl)oxy)ethyl)phenyl)-3-methylbenzamide], the IC50 in assay [1] is 51 to 500 nM.

Take `C[C@@H](Oc1cncc(Cl)n1)c1cccc(NC(=O)c2cccc(C(F)(F)F)c2)c1` [Compound 327, (R)—N-(3-(1-((6-chloropyrazin-2-yl)oxy)ethyl)phenyl)-3-(trifluoromethyl)benzamide]: the IC50 in assay [1] lay within 51 to 500 nM.

With `Cc1cccc(NC(=O)Nc2cccc(Oc3cc(Cl)cnc3N)c2)c1` [Compound 331, 1-(3-((2-amino-5-chloropyridin-3-yl)oxy)phenyl)-3-(m-tolyl)urea], the half-maximal inhibitory concentration (IC50) in assay [1] fell in the range of 51 to 500 nM.

For `Cn1cc(-c2cnc(N)c(Oc3cccc(NC(=O)Nc4ccc(Cl)c(C(F)(F)F)c4)c3)c2)cn1` [Compound 348, 1-(3-((2-amino-5-(1-methyl-1H-pyrazol-4-yl)pyridin-3-yl)oxy)phenyl)-3-(4-chloro-3-(trifluoromethyl)phenyl)urea], in assay [1], the IC50 was at most 50 nM.
